In ChEMBL document CHEMBL1201862, “PubChem BioAssay data set” (2004):
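Step 1: Grow cells in 96-well plates. Step 2: Expose to compound for 48 hours at 5 concentrations. Step 3: Interpolate endpoints linearly; if unreached, use highest concentration. Here, GI50 denotes the concentration required for 50% inhibition of growth.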 Calls of active or inactive are those of the source. Rule as the data show it: active = GI50 up to about 1.1 µM and inactive = higher.

Tests used:
Assay in all cases: NCI anticancer screen, dose series, 48 h
SN12C = test system: SN12C
Hs-578T = test system: Hs-578T
MDA-MB-435 = test system: MDA-MB-435
NCI-H226 = test system: NCI-H226
BT-549 = test system: BT-549
MOLT-4 = test system: MOLT-4
U-251 = test system: U-251
UACC-62 = test system: UACC-62
UACC-257 = test system: UACC-257
SNB-75 = test system: SNB-75
A498 = test system: A498
HL-60 = test system: HL-60
MCF7 = test system: MCF7
SK-OV-3 = test system: SK-OV-3
T47D = test system: T47D
PC-3 = test system: PC-3
RPMI-8226 = test system: RPMI-8226
NCI/ADR-RES = test system: NCI/ADR-RES
LOX IMVI = test system: LOX IMVI
MDA-N = test system: MDA-N
HT-29 = test system: HT-29
HCT-116 = test system: HCT-116
HOP-92 = test system: HOP-92
SNB-19 = test system: SNB-19
MDA-MB-231 = test system: MDA-MB-231
HCT-15 = test system: HCT-15
CAKI-1 = test system: CAKI-1
A549 = test system: A549
K562 = test system: K562
786-0 = test system: 786-0
IGROV-1 = test system: IGROV-1
EKVX = test system: EKVX
DU-145 = test system: DU-145
NCI-H23 = test system: NCI-H23
NCI-H460 = test system: NCI-H460
SK-MEL-28 = test system: SK-MEL-28
SF-295 = test system: SF-295
OVCAR-4 = test system: OVCAR-4
HOP-62 = test system: HOP-62
SK-MEL-5 = test system: SK-MEL-5
COLO 205 = test system: COLO 205
SW-620 = test system: SW-620
Malme-3M = test system: Malme-3M
M14 = test system: M14
ACHN = test system: ACHN
SK-MEL-2 = test system: SK-MEL-2
TK-10 = test system: TK-10
UO-31 = test system: UO-31
HCC 2998 = test system: HCC 2998
OVCAR-8 = test system: OVCAR-8
CCRF-CEM = test system: CCRF-CEM
OVCAR-5 = test system: OVCAR-5
SF-268 = test system: SF-268
RXF 393 = test system: RXF 393
OVCAR-3 = test system: OVCAR-3
SR = test system: SR
KM12 = test system: KM12
NCI-H522 = test system: NCI-H522
SF-539 = test system: SF-539

## O=C1NC(=O)/C(=C/c2ccc(S(=O)(=O)N/N=C\C(O)C(O)C(O)C(O)CO)cc2)N1 (stereo not given)
SN12C
  GI50: > 100 µM (inactive)
Hs-578T
  GI50: > 100 µM (inactive)
MDA-MB-435
  GI50: > 100 µM (inactive)
NCI-H226
  GI50: > 100 µM (inactive)
BT-549
  GI50: > 100 µM (inactive)
MOLT-4
  GI50: > 100 µM (inactive)
U-251
  GI50: > 100 µM (inactive)
UACC-62
  GI50: > 100 µM (inactive)
UACC-257
  GI50: > 100 µM (inactive)
SNB-75
  GI50: > 100 µM (inactive)
A498
  GI50: > 100 µM (inactive)
HL-60
  GI50: > 100 µM (inactive)
MCF7
  GI50: > 100 µM (inactive)
SK-OV-3
  GI50: > 100 µM (inactive)
T47D
  GI50: > 100 µM (inactive)
PC-3
  GI50: > 100 µM (inactive)
RPMI-8226
  GI50: > 100 µM (inactive)
NCI/ADR-RES
  GI50: > 100 µM (inactive)
LOX IMVI
  GI50: > 100 µM (inactive)
MDA-N
  GI50: > 100 µM (inactive)
HT-29
  GI50: > 100 µM (inactive)
HCT-116
  GI50: > 100 µM (inactive)
HOP-92
  GI50: > 100 µM (inactive)
SNB-19
  GI50: > 100 µM (inactive)
MDA-MB-231
  GI50: > 100 µM (inactive)
HCT-15
  GI50: > 100 µM
CAKI-1
  GI50: > 100 µM (inactive)
A549
  GI50: > 100 µM (inactive)
K562
  GI50: > 100 µM (inactive)
786-0
  GI50: > 100 µM (inactive)
IGROV-1
  GI50: > 100 µM (inactive)
EKVX
  GI50: > 100 µM (inactive)
DU-145
  GI50: > 100 µM (inactive)
NCI-H23
  GI50: > 100 µM (inactive)
NCI-H460
  GI50: > 100 µM (inactive)
SK-MEL-28
  GI50: > 100 µM (inactive)
SF-295
  GI50: > 100 µM (inactive)
OVCAR-4
  GI50: > 100 µM (inactive)
HOP-62
  GI50: > 100 µM (inactive)
SK-MEL-5
  GI50: > 100 µM (inactive)
COLO 205
  GI50: > 100 µM (inactive)
SW-620
  GI50: > 100 µM (inactive)
Malme-3M
  GI50: > 100 µM (inactive)
M14
  GI50: > 100 µM (inactive)
ACHN
  GI50: > 100 µM (inactive)
SK-MEL-2
  GI50: > 100 µM (inactive)
TK-10
  GI50: > 100 µM (inactive)
UO-31
  GI50: > 100 µM (inactive)
HCC 2998
  GI50: > 100 µM (inactive)
OVCAR-8
  GI50: > 100 µM (inactive)
CCRF-CEM
  GI50: > 100 µM (inactive)
OVCAR-5
  GI50: > 100 µM (inactive)
SF-268
  GI50: > 100 µM (inactive)
RXF 393
  GI50: > 100 µM (inactive)
OVCAR-3
  GI50: > 100 µM (inactive)
SR
  GI50: > 100 µM (inactive)
KM12
  GI50: > 100 µM (inactive)

## COc1cc(CNNC(N)=S)cc(OC)c1OC
SN12C
  GI50: > 100 µM (inactive)
Hs-578T
  GI50: > 100 µM (inactive)
MDA-MB-435
  GI50: > 100 µM (inactive)
NCI-H226
  GI50: > 100 µM (inactive)
BT-549
  GI50: 22.3 µM (inactive)
MOLT-4
  GI50: > 100 µM (inactive)
U-251
  GI50: > 100 µM (inactive)
UACC-257
  GI50: > 100 µM (inactive)
SNB-75
  GI50: > 100 µM (inactive)
A498
  GI50: > 100 µM (inactive)
HL-60
  GI50: > 100 µM (inactive)
MCF7
  GI50: > 100 µM (inactive)
T47D
  GI50: 7.03 µM (inactive)
PC-3
  GI50: > 100 µM (inactive)
RPMI-8226
  GI50: > 100 µM (inactive)
NCI/ADR-RES
  GI50: > 100 µM (inactive)
LOX IMVI
  GI50: > 100 µM (inactive)
MDA-N
  GI50: > 100 µM (inactive)
HT-29
  GI50: > 100 µM (inactive)
HCT-116
  GI50: > 100 µM (inactive)
HOP-92
  GI50: 3.46 µM (inactive)
SNB-19
  GI50: > 100 µM (inactive)
MDA-MB-231
  GI50: > 100 µM (inactive)
HCT-15
  GI50: > 100 µM
CAKI-1
  GI50: 6.27 µM (inactive)
A549
  GI50: > 100 µM (inactive)
K562
  GI50: > 100 µM (inactive)
786-0
  GI50: > 100 µM (inactive)
IGROV-1
  GI50: > 100 µM (inactive)
EKVX
  GI50: > 100 µM (inactive)
DU-145
  GI50: > 100 µM (inactive)
NCI-H23
  GI50: > 100 µM (inactive)
NCI-H460
  GI50: > 100 µM (inactive)
SK-MEL-28
  GI50: > 100 µM (inactive)
SF-295
  GI50: > 100 µM (inactive)
HOP-62
  GI50: 90.6 µM (inactive)
SK-MEL-5
  GI50: > 100 µM (inactive)
COLO 205
  GI50: > 100 µM (inactive)
SW-620
  GI50: > 100 µM (inactive)
Malme-3M
  GI50: > 100 µM (inactive)
M14
  GI50: > 100 µM (inactive)
NCI-H522
  GI50: > 100 µM (inactive)
ACHN
  GI50: > 100 µM (inactive)
TK-10
  GI50: > 100 µM (inactive)
UO-31
  GI50: > 100 µM (inactive)
HCC 2998
  GI50: > 100 µM (inactive)
SF-539
  GI50: > 100 µM (inactive)
OVCAR-8
  GI50: > 100 µM (inactive)
CCRF-CEM
  GI50: > 100 µM (inactive)
OVCAR-5
  GI50: 95.1 µM (inactive)
SF-268
  GI50: > 100 µM (inactive)
RXF 393
  GI50: > 100 µM (inactive)
OVCAR-3
  GI50: > 100 µM (inactive)
SR
  GI50: > 100 µM (inactive)
KM12
  GI50: > 100 µM (inactive)

## Cc1ccc(C(=O)Cn2c(C(=O)/C=C/c3cccs3)nc3ccccc32)cc1
SN12C
  GI50: 32.9 µM (inactive)
Hs-578T
  GI50: 20.7 µM (inactive)
MDA-MB-435
  GI50: 21.3 µM (inactive)
NCI-H226
  GI50: > 100 µM (inactive)
BT-549
  GI50: 34.4 µM (inactive)
U-251
  GI50: 39.1 µM (inactive)
UACC-62
  GI50: 87.1 µM (inactive)
UACC-257
  GI50: 24.4 µM (inactive)
SNB-75
  GI50: > 100 µM (inactive)
A498
  GI50: 32.1 µM (inactive)
HL-60
  GI50: 22.7 µM (inactive)
MCF7
  GI50: 29.6 µM (inactive)
SK-OV-3
  GI50: > 100 µM (inactive)
T47D
  GI50: > 100 µM (inactive)
PC-3
  GI50: 28.6 µM (inactive)
RPMI-8226
  GI50: 21.7 µM (inactive)
NCI/ADR-RES
  GI50: 23.2 µM (inactive)
LOX IMVI
  GI50: 26.2 µM (inactive)
MDA-N
  GI50: 28.1 µM (inactive)
HT-29
  GI50: 38.5 µM (inactive)
HCT-116
  GI50: 43.4 µM (inactive)
HOP-92
  GI50: 93.5 µM (inactive)
SNB-19
  GI50: 58.1 µM (inactive)
MDA-MB-231
  GI50: 71.3 µM (inactive)
HCT-15
  GI50: 31.3 µM
A549
  GI50: 32.6 µM (inactive)
K562
  GI50: 25.8 µM (inactive)
786-0
  GI50: 45.5 µM (inactive)
IGROV-1
  GI50: 25 µM (inactive)
DU-145
  GI50: 82 µM (inactive)
NCI-H23
  GI50: 29.9 µM (inactive)
NCI-H460
  GI50: 22.4 µM (inactive)
SK-MEL-28
  GI50: 68.5 µM (inactive)
OVCAR-4
  GI50: 29.5 µM (inactive)
HOP-62
  GI50: 67.1 µM (inactive)
SK-MEL-5
  GI50: 36.1 µM (inactive)
COLO 205
  GI50: 41.1 µM (inactive)
SW-620
  GI50: 34.2 µM (inactive)
Malme-3M
  GI50: 24.5 µM (inactive)
M14
  GI50: 49.9 µM (inactive)
ACHN
  GI50: 61.4 µM (inactive)
SK-MEL-2
  GI50: 12.6 µM (inactive)
TK-10
  GI50: 53.2 µM (inactive)
UO-31
  GI50: 62.8 µM (inactive)
HCC 2998
  GI50: 21 µM (inactive)
SF-539
  GI50: > 100 µM (inactive)
CCRF-CEM
  GI50: 11.5 µM (inactive)
OVCAR-5
  GI50: > 100 µM (inactive)
SF-268
  GI50: 32.9 µM (inactive)
RXF 393
  GI50: 94.6 µM (inactive)
OVCAR-3
  GI50: 31.3 µM (inactive)
SR
  GI50: 6.68 µM (inactive)
KM12
  GI50: 24.2 µM (inactive)
